These results are taken from PubChem BioAssay AID1288 (Columbia University Molecular Screening Center, 2008).

Active and inactive are the calls of the source. The rule behind the calls is not given here.

What is called inhibition is the drop in the measured response relative to a control, in per cent.

This test is described as follows: inhibitors of TNFa-induced E-selectin expression, confirmation, imaging, retest plus dose response, cell count (AID 1288).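 Note: 0% = stimulated vehicle wells and 100% = unstimulated vehicle wells.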 The following applies: human endothelial cells, TNFa-induced E-selectin, imaging; at 2 µM; hits give high values.
Take `O=C(CO/N=C/c1ccccc1OC(F)F)NCc1cccs1`: the inhibition was 1.25% (inactive).
As for `COc1ccc(Br)cc1C(=O)O`, the figure is -3.94% (inactive); as for `CCC(=O)N1CCc2cc(Br)cc(S(=O)(=O)NCc3ccco3)c21`, 0.76% (inactive); as for `CC(C)C(=O)Nc1ccc(-c2nc3cccnc3o2)cc1`, 15.7% (inactive).
In the case of `COC(=O)CSc1nc(N)nc(C)c1Br`, the inhibition is 3.71% (inactive).
With `CCC1Sc2ccccc2N(CC(=O)NCc2ccc3c(c2)OCO3)C1=O` (stereo not drawn), the inhibition is 9.94% (inactive).
`CC(C)C(=O)N(c1ccc(F)cc1)C1C=CS(=O)(=O)C1` (stereo not drawn): the inhibition was -2.25% (inactive).
Regarding `O=C(NC1CCCCC1)C(c1cccs1)N(C(=O)c1ccco1)c1ccc2c(c1)OCCO2` (stereo not drawn), the inhibition is 8.94% (inactive).
In the case of `COC(=O)c1nnn(-c2ccc(Cl)c(Cl)c2)c1C(=O)OC`, the inhibition is 11.3% (inactive).
With `Cc1ccc(/C=C/C(=O)C2C(=O)c3ccccc3C2=O)cc1`, the inhibition is 23.7% (inactive).
As for `COc1cc(C(=O)OCCNC(=O)c2ccncc2)cc(OC)c1OC`, the figure is 9.29% (inactive); as for `CC(=O)C1=C(C)NC(SCc2cccc3ccccc23)=C(C#N)C1c1ccco1` (stereo not drawn), 5.13% (inactive).
As for `O=C(CSc1ccccn1)N/N=C/c1ccccc1[N+](=O)[O-]`, the figure is 5.02% (inactive).
As for `COc1cccc(C(C(=O)NC(C)(C)C)N(C(=O)CCC(=O)Nc2cc(C)on2)C2CC2)c1OC` (stereo not drawn), the figure is 2.4% (inactive); as for `COC(=O)c1cnc(SCc2ccc(C)cc2)n1C`, 15.2% (inactive).
As for `Cn1cccc1/C=C1/C(=O)NC(=O)N(Cc2ccccc2)C1=O`, the inhibition is 35.4% (inactive).
As for `CC1(C)NC(=O)N(CC(O)COc2cc3ccccc3cc2C(=O)N2CCCCC2)C1=O` (stereo not drawn), the figure is 7% (inactive); as for `COC(=O)C(NC(=O)c1ccccc1)c1ccccc1` (stereo not drawn), 5.65% (inactive).
Regarding `C=CCn1c(COc2cccc(C)c2C)nnc1SCC(=O)N1CCN(c2ccccc2)CC1`, the inhibition was 5.6% (inactive).
As for `COc1ccc(C2C(C(=O)Nc3cccnc3)=C(C)Nc3nc(-c4cccs4)nn32)cc1` (stereo not drawn), the figure is 7.57% (inactive).
On to `COCCCNC(=S)N1CCN(c2ccc([N+](=O)[O-])cc2)CC1`, for which the inhibition was 20% (inactive).
Then `O=C(O)C1CCCN1S(=O)(=O)c1ccc(Br)s1` (stereo not drawn) (tested in a mixture with another compound), with 6.99% (inactive); and `CC(C)[C@H](NC(=O)CCn1nnc2ccccc2c1=O)C(=O)O`, with 4.34% (inactive).
On to `O=c1ncn(-c2ccccc2F)c2ncccc12`, for which the inhibition was 1.5% (inactive).
With `O=C(CSc1nnc(-c2cc(-c3cccs3)nc3ccccc23)o1)NC1CCCCC1`, the inhibition was 5.57% (inactive).
Take `O=C(c1c(Cl)nc2sccn12)N1CCCc2ccccc21`: the inhibition is 0.11% (inactive).
As for `CCCCCn1c(SCC#N)nc2cc(C(=O)NCC3CCCO3)ccc2c1=O` (stereo not drawn), the figure is 7.32% (inactive); as for `CCOC(=O)CCc1nc2ccccc2[nH]c1=O`, 15.7% (inactive); as for `CC(=O)c1ccc(NC(=S)N2CC(C)CC(C)C2)cc1` (stereo not drawn), -4.33% (inactive).
As for `COc1ccc(-n2c(C)cc(C(=O)COc3ccc(C)nc3[N+](=O)[O-])c2C)cc1`, the figure is 31.4% (inactive).
On to `Nc1ccc(Br)cc1-c1nc2ccccc2[nH]c1=O`, for which the inhibition is -8.67% (inactive).
As for `Cc1ccc(-c2cc(NC(=O)CCl)n(-c3ccccc3)n2)cc1`, the figure is -2.61% (inactive).
As for `COc1ccc(C(=O)/C=C/Nc2ccc([N+](=O)[O-])cc2C)c(OC)c1`, the inhibition is 26.8% (inactive).
As for `O=S(=O)(/N=C(/Nc1ccccc1)c1ccccc1)c1cccs1`, the figure is 5.98% (inactive).
Consider `c1nc(NCCN2CCOCC2)c2sc3nc(N4CCOCC4)c4c(c3c2n1)CCC4`, for which the inhibition is 34.1% (inactive).
As for `O=C(Nc1ccc2nsnc2c1)c1ccc2c(c1)OCO2`, the figure is 7.37% (inactive); as for `Cc1ccc(-n2c(SCC(=O)Nc3ccc4c(c3)OCCO4)nnc2-c2ccco2)cc1`, 5.17% (inactive).
As for `O=c1[nH]cnc2cc(-c3ccccc3)sc12`, the figure is 7.67% (inactive); as for `S=C(NCc1cccs1)Nc1cccc(Cl)c1Cl`, 8.76% (inactive).
As to `Cc1cccc(NC(=O)CCSc2nc(C)cc(C)n2)c1`, the inhibition was 4.57% (inactive).
Then `O=C(Oc1ccccc1N1C(=O)C2CC=CCC2C1=O)c1ccc(Br)cc1` (stereo not drawn), with 5.75% (inactive); and `COc1ccccc1N1CCN(c2cc(N3CCCC3)nc(C)n2)CC1`, with -3.57% (inactive); and `CC(OC(=O)c1ccco1)C(=O)NC1CCCCC1` (stereo not drawn), with 18.2% (inactive).
As to `CCCCCn1c(CN2CCN(Cc3ccccc3)CC2)nc2c1c(=O)n(C)c(=O)n2C`, the inhibition was 2.55% (inactive).
As to `Cc1cc(NCCN2CCCCC2)n2c(nc3ccccc32)c1C#N`, the inhibition was 11.7% (inactive).
Then `CCSc1nnc(-c2cccs2)o1`, with 6.52% (inactive).
As for `CCOC(=O)N1CCN(C(=O)C2CCN(S(=O)(=O)c3cc(OC)ccc3OC)CC2)CC1`, the figure is 1.55% (inactive); as for `Cc1cccc(C)c1NC(=O)CN(C)C(=O)/C=C/c1cccs1`, 1.62% (inactive); as for `Cc1c(NC(=O)c2c(N)n(-c3ccccc3)c3nc4ccccc4nc23)c(=O)n(-c2ccccc2)n1C`, 4.61% (inactive).
As for `COc1ccc(/C=N/NC(=O)C(C)n2cnc3ccccc3c2=O)cc1OC` (stereo not drawn), the figure is -0.71% (inactive); as for `CCn1c(=O)cc(SCC(=O)N2CCN(C3CCCCC3)CC2)c2ccccc21`, 16.9% (inactive); as for `CCS(=O)(=O)NCC(c1ccco1)N1CCN(c2ccccc2)CC1` (stereo not drawn), 0.44% (inactive).
In the case of `OCCNCCOc1ccc(Cl)c(Cl)c1`, the inhibition is 1.74% (inactive).
Then `CCc1cc(OCCOCCN(C)C)ccc1Cl`, with 8.67% (inactive).
Then `CCOc1ccc(C)cc1-n1nc2ccccc2n1`, with 34.6% (inactive); and `CCOc1ccc(-n2nc(C(=O)N3CCN(CC)CC3)c3ccccc3c2=O)cc1`, with 18.4% (inactive).
Regarding `O=C(NCCN1C(=O)CSC1=O)c1ccccc1`, the inhibition is 1.16% (inactive).
In the case of `CCOc1ccc(NC(=O)COC(=O)C23CC4CC(CC(C4)C2)C3)c([N+](=O)[O-])c1`, the inhibition was 1.77% (inactive).
Turning to `N/C(Cc1ccc([N+](=O)[O-])cc1)=N\OC(=O)COc1ccc2ccccc2c1`, the inhibition is 12.6% (inactive).
Take `CCCc1c(O)c2ccccc2[nH]c1=O`: the inhibition was 0.12% (inactive).
Turning to `Cn1c(SCc2ccc(C#N)cc2)nnc1-c1cccc(Cl)c1`, the inhibition is 7.7% (inactive).
Then `COc1ccc(-n2c(COc3ccccc3)nnc2SCC(N)=O)cc1`, with 42.3% (inactive); and `N#CCc1c(C#N)c(N)nc(N2CCN(c3ccc(F)cc3)CC2)c1C#N`, with 4.37% (inactive); and `O=C(CSc1ncn(-c2ccccc2)n1)Nc1ccc2c(c1)OCCO2`, with 14.5% (inactive).
Then `COc1ccc(CCNC(=O)CSc2nc(-c3ccco3)cc(C(F)(F)F)n2)cc1OC`, with 18.9% (inactive).
As for `NC(=S)NNc1cccc(Cl)c1`, the figure is 6.61% (inactive); as for `COc1ccc(Cc2nnc(NC(=O)Cc3cccs3)s2)cc1`, 1.69% (inactive).
`COc1ccc(NC(=O)c2cc(-c3ccc(OC)c(OC)c3)on2)cc1OC`: the inhibition was 9.77% (inactive).
As for `Fc1ccc(-c2n[nH]c(=S)n2/N=C/c2c[nH]c3ccccc23)cc1`, the figure is 27.9% (inactive); as for `Cc1ccc2cc3c(NC(=O)C(C)C)nn(C)c3nc2c1`, 9.56% (inactive); as for `CN(C)S(=O)(=O)c1cc(NC(=O)CN2C(=O)NC3(CCCc4ccccc43)C2=O)ccc1Cl` (stereo not drawn), 4.67% (inactive).
As for `NC(=O)c1ccc(-c2ccc(Br)cc2)o1`, the inhibition was 36.5% (inactive).
Turning to `CC(C)(C)OC(=O)NCC(=O)N1CCC(C(=O)O)CC1`, the inhibition was -3.45% (inactive).
Then `COc1ccccc1N1CCN(C(=O)c2ccc(Br)s2)CC1`, with 0.09% (inactive); and `COc1ccc(CCNC(=O)C(=O)NCc2ccc(C)cc2)cc1OC`, with 8.92% (inactive).
Turning to `CCOC(=O)C1C(c2cc(OC)c(O)c(OC)c2)NC(=S)NC1(O)C(F)(F)F` (stereo not drawn), the inhibition was 7.39% (inactive).
Then `Cc1noc(C)c1S(=O)(=O)N1CCC(C(=O)N2CCN(Cc3ccc4c(c3)OCO4)CC2)CC1`, with 7.72% (inactive).
Then `Cc1c(N=C/C=C2\N(C)c3ccccc3C2(C)C)c(=O)n(-c2ccccc2)n1C`, with 1.21% (inactive); and `Cc1ccc(S(=O)(=O)Nc2ccc(NC(=O)Nc3ccc(F)cc3F)cc2)cc1`, with 37.3% (inactive); and `CCOC(=O)c1c(NC(=O)CSc2nnc(CNc3ccc(C)cc3C)o2)sc(C)c1C`, with 2.5% (inactive).
Then `Cc1ccc(-n2c(SCC(=O)Nc3nccs3)nc3c(c2=O)SCC3)cc1`, with 5.08% (inactive).
With `COc1ccc(S(=O)(=O)Nc2ccc(C)cc2)cc1N(C)S(=O)(=O)c1ccc(Cl)cc1`, the inhibition was 3.82% (inactive).
With `C=CCNC(=S)NNC(=O)c1ccc(Br)cc1`, the inhibition was 38.3% (inactive).
Consider `O=S1(=O)CCC(NC(=S)N2CCCCCC2)C1` (stereo not drawn), for which the inhibition was 18.2% (inactive).
As for `CN(C)CC1CSCCC1(O)c1ccc(Cl)cc1` (stereo not drawn), the figure is 20.4% (inactive).
As to `Cc1ccc2nc(-c3cccc(NC(=O)c4ccc5c(c4)OCCO5)c3)oc2c1`, the inhibition was 4.99% (inactive).
For `O=C(CSc1ncnc2nc[nH]c12)Nc1ccccc1C(F)(F)F`, the inhibition is 30.5% (inactive).
As for `N#CC1=C(N)Oc2cc(Nc3ccccc3)ccc2C1c1ccncc1` (stereo not drawn), the figure is 4.14% (inactive).
